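Test compounds were applied to cells in 96-well plates for 48 hours at 5 doses. TGI denotes the concentration required for complete inhibition of growth.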
What was measured:
Assay in all cases: NCI tumour cell line growth inhibition, 48 h
A549 NSCLC = test system: A549 NSCLC
MCF7 breast = test system: MCF7 breast
SW-620 colon = test system: SW-620 colon
UACC-62 melanoma = test system: UACC-62 melanoma
HCC-2998 colon = test system: HCC-2998 colon
HOP-92 NSCLC = test system: HOP-92 NSCLC
NCI-H522 lung = test system: NCI-H522 lung
OVCAR-3 ovarian = test system: OVCAR-3 ovarian
DU-145 prostate = test system: DU-145 prostate
LOX IMVI melanoma = test system: LOX IMVI melanoma
SK-MEL-5 melanoma = test system: SK-MEL-5 melanoma
NCI-H226 lung = test system: NCI-H226 lung
UACC-257 melanoma = test system: UACC-257 melanoma
HCT-116 colon = test system: HCT-116 colon
HOP-62 NSCLC = test system: HOP-62 NSCLC
OVCAR-5 ovarian = test system: OVCAR-5 ovarian
NCI-H23 lung = test system: NCI-H23 lung
HCT-15 colon = test system: HCT-15 colon
SF-268 CNS = test system: SF-268 CNS
COLO 205 colon = test system: COLO 205 colon
ACHN renal = test system: ACHN renal
SNB-75 CNS = test system: SNB-75 CNS
NCI/ADR-RES ovarian = test system: NCI/ADR-RES ovarian
CAKI-1 renal = test system: CAKI-1 renal
HT29 colon = test system: HT29 colon
SK-OV-3 ovarian = test system: SK-OV-3 ovarian
SR leukemia = test system: SR leukemia
CCRF-CEM leukemia = test system: CCRF-CEM leukemia
SF-539 CNS = test system: SF-539 CNS
KM12 colon = test system: KM12 colon
HL-60(TB) leukemia = test system: HL-60(TB) leukemia
RXF 393 renal = test system: RXF 393 renal
K-562 leukemia = test system: K-562 leukemia
SN12C renal = test system: SN12C renal
T-47D breast = test system: T-47D breast
MOLT-4 leukemia = test system: MOLT-4 leukemia
SF-295 CNS = test system: SF-295 CNS
EKVX NSCLC = test system: EKVX NSCLC
HS 578T breast = test system: HS 578T breast
MDA-N = test system: MDA-N
786-0 renal = test system: 786-0 renal
NCI-H460 lung = test system: NCI-H460 lung
TK-10 renal = test system: TK-10 renal
OVCAR-8 ovarian = test system: OVCAR-8 ovarian
UO-31 renal = test system: UO-31 renal
M14 melanoma = test system: M14 melanoma
A498 renal = test system: A498 renal
MDA-MB-435 = test system: MDA-MB-435
RPMI-8226 leukemia = test system: RPMI-8226 leukemia
U251 CNS = test system: U251 CNS
PC-3 prostate = test system: PC-3 prostate
OVCAR-4 ovarian = test system: OVCAR-4 ovarian
IGROV1 ovarian = test system: IGROV1 ovarian
MDA-MB-231 breast = test system: MDA-MB-231 breast
SK-MEL-28 melanoma = test system: SK-MEL-28 melanoma
MALME-3M melanoma = test system: MALME-3M melanoma
SNB-19 CNS = test system: SNB-19 CNS
BT-549 breast = test system: BT-549 breast
SK-MEL-2 melanoma = test system: SK-MEL-2 melanoma

COC1CC(COCc2ccccc2)CC(OC)O1 (stereo unspecified)
TGI (A549 NSCLC): > 100 µM
TGI (MCF7 breast): > 100 µM
TGI (SW-620 colon): > 100 µM
TGI (UACC-62 melanoma): > 100 µM
TGI (HCC-2998 colon): > 100 µM
TGI (HOP-92 NSCLC): > 100 µM
TGI (NCI-H522 lung): > 100 µM
TGI (OVCAR-3 ovarian): > 100 µM
TGI (DU-145 prostate): > 100 µM
TGI (LOX IMVI melanoma): > 100 µM
TGI (SK-MEL-5 melanoma): > 100 µM
TGI (NCI-H226 lung): > 100 µM
TGI (UACC-257 melanoma): > 100 µM
TGI (HCT-116 colon): > 100 µM
TGI (HOP-62 NSCLC): > 100 µM
TGI (OVCAR-5 ovarian): > 100 µM
TGI (NCI-H23 lung): > 100 µM
TGI (HCT-15 colon): > 100 µM
TGI (SF-268 CNS): > 100 µM
TGI (COLO 205 colon): > 100 µM
TGI (ACHN renal): > 100 µM
TGI (SNB-75 CNS): > 100 µM
TGI (NCI/ADR-RES ovarian): > 100 µM
TGI (CAKI-1 renal): > 100 µM
TGI (HT29 colon): > 100 µM
TGI (SK-OV-3 ovarian): > 100 µM
TGI (SR leukemia): > 100 µM
TGI (CCRF-CEM leukemia): 0.44 µM
TGI (SF-539 CNS): > 100 µM
TGI (KM12 colon): > 100 µM
TGI (HL-60(TB) leukemia): 1.84 µM
TGI (RXF 393 renal): > 100 µM
TGI (K-562 leukemia): > 100 µM
TGI (SN12C renal): > 100 µM
TGI (T-47D breast): > 100 µM
TGI (MOLT-4 leukemia): > 100 µM
TGI (SF-295 CNS): > 100 µM
TGI (EKVX NSCLC): > 100 µM
TGI (HS 578T breast): > 100 µM
TGI (MDA-N): > 100 µM
TGI (786-0 renal): > 100 µM
TGI (NCI-H460 lung): > 100 µM
TGI (TK-10 renal): > 100 µM
TGI (OVCAR-8 ovarian): > 100 µM
TGI (UO-31 renal): > 100 µM
TGI (M14 melanoma): > 100 µM
TGI (A498 renal): > 100 µM
TGI (MDA-MB-435): > 100 µM
TGI (RPMI-8226 leukemia): > 100 µM

COc1cc(C2c3cc4c(cc3OC(NNS(=O)(=O)c3ccc(C)cc3)C2C)OCO4)cc(OC)c1O (stereo unspecified)
TGI (A549 NSCLC): > 100 µM
TGI (MCF7 breast): 36.1 µM
TGI (SW-620 colon): > 100 µM
TGI (UACC-62 melanoma): 40.9 µM
TGI (HCC-2998 colon): > 100 µM
TGI (HOP-92 NSCLC): 54.8 µM
TGI (NCI-H522 lung): 69.1 µM
TGI (U251 CNS): 27.8 µM
TGI (OVCAR-3 ovarian): 50 µM
TGI (PC-3 prostate): 14 µM
TGI (DU-145 prostate): > 100 µM
TGI (LOX IMVI melanoma): 52.3 µM
TGI (SK-MEL-5 melanoma): 25 µM
TGI (OVCAR-4 ovarian): 40.1 µM
TGI (IGROV1 ovarian): 30.8 µM
TGI (NCI-H226 lung): 60.2 µM
TGI (UACC-257 melanoma): 38.4 µM
TGI (HCT-116 colon): > 100 µM
TGI (HOP-62 NSCLC): 39.4 µM
TGI (OVCAR-5 ovarian): > 100 µM
TGI (NCI-H23 lung): 76.4 µM
TGI (HCT-15 colon): 22.6 µM
TGI (SF-268 CNS): > 100 µM
TGI (COLO 205 colon): 43.5 µM
TGI (ACHN renal): 33.6 µM
TGI (SNB-75 CNS): 22.7 µM
TGI (NCI/ADR-RES ovarian): 45.1 µM
TGI (CAKI-1 renal): 32.8 µM
TGI (HT29 colon): 49.6 µM
TGI (SK-OV-3 ovarian): 79.2 µM
TGI (CCRF-CEM leukemia): > 100 µM
TGI (SF-539 CNS): 31.4 µM
TGI (KM12 colon): 36.5 µM
TGI (HL-60(TB) leukemia): 35.4 µM
TGI (RXF 393 renal): 54 µM
TGI (K-562 leukemia): 45.7 µM
TGI (SN12C renal): > 100 µM
TGI (T-47D breast): > 100 µM
TGI (MOLT-4 leukemia): 49.5 µM
TGI (SF-295 CNS): 17.7 µM
TGI (EKVX NSCLC): 49.8 µM
TGI (HS 578T breast): 55.3 µM
TGI (MDA-N): 51.4 µM
TGI (MDA-MB-231 breast): 57.5 µM
TGI (SK-MEL-28 melanoma): > 100 µM
TGI (MALME-3M melanoma): 25 µM
TGI (786-0 renal): 42.9 µM
TGI (NCI-H460 lung): 17.5 µM
TGI (TK-10 renal): 39.9 µM
TGI (OVCAR-8 ovarian): > 100 µM
TGI (M14 melanoma): 58.2 µM
TGI (SNB-19 CNS): 56.4 µM
TGI (A498 renal): 25.2 µM
TGI (MDA-MB-435): 12.4 µM
TGI (RPMI-8226 leukemia): 41.9 µM

COc1ccc(C2SCC(=O)N2NC(=O)c2ccc(NC(C)=O)cc2)c(OC)c1 (stereo unspecified)
TGI (A549 NSCLC): > 100 µM
TGI (MCF7 breast): > 100 µM
TGI (SW-620 colon): > 100 µM
TGI (UACC-62 melanoma): > 100 µM
TGI (HCC-2998 colon): > 100 µM
TGI (HOP-92 NSCLC): > 100 µM
TGI (U251 CNS): > 100 µM
TGI (OVCAR-3 ovarian): > 100 µM
TGI (DU-145 prostate): > 100 µM
TGI (SK-MEL-5 melanoma): > 100 µM
TGI (OVCAR-4 ovarian): > 100 µM
TGI (IGROV1 ovarian): > 100 µM
TGI (NCI-H226 lung): > 100 µM
TGI (UACC-257 melanoma): > 100 µM
TGI (BT-549 breast): > 100 µM
TGI (HCT-116 colon): > 100 µM
TGI (HOP-62 NSCLC): > 100 µM
TGI (OVCAR-5 ovarian): > 100 µM
TGI (NCI-H23 lung): > 100 µM
TGI (SK-MEL-2 melanoma): > 100 µM
TGI (HCT-15 colon): > 100 µM
TGI (SF-268 CNS): > 100 µM
TGI (COLO 205 colon): > 100 µM
TGI (ACHN renal): > 100 µM
TGI (SNB-75 CNS): > 100 µM
TGI (NCI/ADR-RES ovarian): > 100 µM
TGI (HT29 colon): > 100 µM
TGI (SK-OV-3 ovarian): > 100 µM
TGI (SF-539 CNS): > 100 µM
TGI (KM12 colon): > 100 µM
TGI (HL-60(TB) leukemia): > 100 µM
TGI (RXF 393 renal): > 100 µM
TGI (K-562 leukemia): > 100 µM
TGI (SN12C renal): > 100 µM
TGI (T-47D breast): > 100 µM
TGI (MOLT-4 leukemia): > 100 µM
TGI (SF-295 CNS): > 100 µM
TGI (EKVX NSCLC): > 100 µM
TGI (HS 578T breast): > 100 µM
TGI (MDA-N): > 100 µM
TGI (MDA-MB-231 breast): > 100 µM
TGI (SK-MEL-28 melanoma): > 100 µM
TGI (786-0 renal): > 100 µM
TGI (NCI-H460 lung): > 100 µM
TGI (TK-10 renal): > 100 µM
TGI (OVCAR-8 ovarian): > 100 µM
TGI (UO-31 renal): > 100 µM
TGI (M14 melanoma): > 100 µM
TGI (SNB-19 CNS): > 100 µM
TGI (A498 renal): > 100 µM
TGI (MDA-MB-435): > 100 µM
TGI (RPMI-8226 leukemia): > 100 µM

— PubChem BioAssay (NCI)
